Assay: gradient 5% acetonitrile 3 min, to 50% in 2 min, to 85% in 15 min, held 3 min, 100 µL/min
Conditions: column: Zorbax Extend-C18 2.1 x 50 mm; eluents: water / acetonitrile, 0.1% formic acid
Method in brief: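 The system's dead and dwell volumes were 40 μL and 900 μL, with a Zorbax Extend-C18 column (2.1 × 50 mm, 1.8 μm) run at 100 μL/min in water and acetonitrile containing 0.1% formic acid each. Pure standards were analyzed in mixtures of ~100 molecules by HPLC–quadrupole time-of-flight mass spectrometry in positive and negative ionization mode. Retention time was assigned from computationally picked, manually inspected adduct peaks.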

Compound | RP-LC retention time [s]
COc1cc(-c2noc(Cn3ccnc3C)n2)cc(OC)c1OC | 596
CCOc1cc(=O)n2c(c1C(=O)NC(C)C)CCCCC2 | 623
O=C(Nc1ccc(N2CCN(C3CCCCC3)C2=O)nc1)c1ccc(F)c(F)c1 | 886
COc1ccc(-c2nnc(-c3ccc(OC)c(S(=O)(=O)N(C)C)c3)o2)cc1OC | 807
CCOc1ccc(Cl)cc1S(=O)(=O)N1CCC(C(=O)N2CCCC2)CC1 | 820
O=C(Nc1cnn(-c2ncncc2N2CCCCC2)c1)C1CC1 | 604
CCCNC(=O)C1CCN(c2nc3ccc(-c4cccs4)nc3s2)CC1 | 872
CSc1nc2cc(Oc3cccc(Cl)c3Cl)c(Cl)cc2[nH]1 | 1080
Cc1cncn(CC(=O)NCc2cccs2)c1=O | 580
CCCn1cc(CCNC(=O)c2cncc(Br)c2)c2cccnc21 | 723
CCc1ccc(CNC(=O)c2cc3n(n2)CC(C)(C(=O)NCCC(C)C)N(C)C3=O)cc1 (configuration not stated) | 860
CCCN1C(=O)CCc2cc(NC(=O)c3ccn(CC)n3)ccc21 | 756
COCC1CN(C(=O)CN2CCCC2=O)CCC1(F)F (configuration not stated) | 598
Cc1nnc([C@@H]2CC(F)(F)CN2C(=O)COc2ccc(Cl)cc2)o1 | 779
O=C(NCc1cccc2ccccc12)NCC1CCN(C(=O)Oc2ccccc2)CC1 | 866
Cc1cc2c(cc1S(=O)(=O)N1CCCC1C(=O)NC1CCCCCCC1)OC(C)C(=O)N2 (configuration not stated) | 857
c1ccn(CCc2ccncc2)c1 | 616
CC(C)CCNC(=O)c1cc2n(n1)CC(C)(C(=O)NCc1ccc(F)cc1)N(C)C2=O (configuration not stated) | 770
O=C(CN1C(=O)NC2(CCCCC2)C1=O)Nc1ccc(F)cc1 | 731
CCN(CC)CCCNc1ncnc2c1cnn2-c1cccc(Cl)c1 | 648
Cc1[nH]c(C(=O)N2CCCC(C(=O)NCCCN3CCOCC3)C2)c(C)c1C (configuration not stated) | 597
Cc1cc(C(=O)N2CCCC2Cc2noc(C3CCCC3)n2)n[nH]1 (configuration not stated) | 750
COc1ccc(Cl)cc1NC(=O)c1cn2c(n1)CCCC2 | 726
CC1(C)COc2ccc(NC(=O)c3ccc(Br)o3)cc2NC1=O | 824
O=C(C1=NNc2cc(Cl)ccc2S1(=O)=O)N1CCOCC1 | 664
Cc1cccc(-c2ccc(N3CCCC(C(=O)NC4CCCC4)C3)nn2)c1 (configuration not stated) | 708
CC1CCC(NC(=O)c2cn(-c3ccc(NC(=O)C4CC4)cn3)cn2)CC1 (configuration not stated) | 790
CCCN(CC1CCOC1)C(=O)Nc1cccc(SC)c1 (configuration not stated) | 831

Now from value to compound:

RP-LC retention time [s] | Compound
954 | Cc1oc2ccn(Cc3cccc(F)c3)c(=O)c2c1C(=O)NCc1ccc(F)cc1F
834 | CCc1ccc(N2C(=O)CN(S(C)(=O)=O)CC2(C)C(=O)NCc2ccc(F)cc2)cc1 (configuration not stated)
604 | Cc1cc(C)c2[nH]c3c(c(=O)c2c1)CN(CC(=O)Nc1ccc2c(c1)OCCO2)CC3
585 | CCN(Cc1ccc(OC)cc1)Cc1cc(=O)n2ccccc2n1
840 | COc1ccc(/C(=N/O)C(c2ccc(OC)cc2)C2C(=O)Oc3ccccc32)cc1 (configuration not stated)
959 | O=c1ccc(-c2ccccc2)nn1Cc1nc(-c2ccc3c(c2)OCO3)no1
690 | CC1=C(C(=O)N2CCOCC2)C(c2c(F)cccc2Cl)C2=C(CC(C)(C)CC2=O)N1 (configuration not stated)
902 | O=C(Cn1c(=O)cc(-c2nc(C3CC3)no2)c2ccccc21)NCc1ccccc1F
812 | O=C(NC1CCCCCC1)c1ccc(CN2CCN(Cc3ccccc3)C(=O)C2=O)cc1
853 | CCOc1ccccc1NC(=O)Cn1nc2c(N3CCSCC3)nccn2c1=O
619 | Cn1c(C2CCN(C(=O)NCCc3ccccc3)CC2)cc(=O)n2nccc12
881 | Cc1nn(Cc2nc(-c3ccc(NC(=O)C4CCC4)cc3)oc2C)c(C)c1C
758 | O=C(Nc1ccccc1F)N1CC2CN(S(=O)(=O)c3ccc(F)cc3)CC(C1)O2
665 | CCCCn1c(CN2CCOCC2)nc2cc(NC(=O)CC(C)C)ccc21
833 | CCOc1ccc(-c2csc(Nc3cc(C)ccn3)n2)cc1
736 | Cc1ccc(CNC(=O)CN2C(=O)C3CCCN3C(=O)c3cccc(C)c32)cc1 (configuration not stated)
858 | Cc1cc2c(c(=O)n(-c3ccc(F)cc3)c(=O)n2CC(=O)Nc2ccccc2Cl)n1C
831 | O=C(Nc1ccc2c(c1)OCCO2)c1cnc(-c2ccc(F)cc2)nc1-c1ccncc1
1040 | Cc1ccccc1N1CCN(C(=O)c2cn(-c3cc(N4CCSCC4)ncn3)cn2)CC1
650 | Cn1c(CC2CCN(S(=O)(=O)Cc3ccc(F)cc3Cl)C2)nc2cccnc21 (configuration not stated)

RP-LC retention time [s] | Compound
612 | COc1ccc(-c2c(C)noc2NC(C)=O)cc1S(=O)(=O)N1CCN(c2ccccn2)CC1
1260 | O=C1Cc2c(-c3ccccc3)cc(-c3cccc(Cl)c3)nc2-c2ccccc2N1
1130 | CCOc1c(Br)cc(C(=O)Nc2ccc(C(=O)O)cc2)cc1C(=O)c1ccc(C)cc1
636 | CCc1ccc(-n2c(CN3CCN(C(=O)NCC4CCCO4)CC3)nc3cccnc32)cc1 (configuration not stated)
1110 | O=C(Cn1cnc2c(sc3nc(-c4ccccc4)ccc32)c1=O)Nc1cccc(Br)c1
684 | COc1ccc(Nc2c(-c3ccc(N(C)C)cc3)nc3ncccn23)cc1
816 | O=C(Oc1ccccc1)N1CCC(CNC(=O)C2(c3ccccc3)CCOCC2)CC1
1020 | O=C(CCc1ccccc1)N1CCc2cc(-c3ccno3)ccc21
550 | Cc1nc2c3ccccc3nc(NNC(=O)CCC(=O)N3CCN(c4ccccn4)CC3)n2n1
729 | Cc1ccccc1Nc1c(-c2ccc(N3CCOCC3)cc2)nc2c(C)cccn12
751 | CCNC(=O)N1CC(c2nc(-c3ccc(F)cc3)no2)C2(CCOCC2)C1 (configuration not stated)
756 | CCC(C(=O)Nc1ccc(C)cc1)n1cnc2nc3c(cc2c1=O)CCCC3 (configuration not stated)
997 | CCCNC(=O)c1ccc2c(=O)n(Cc3ccccc3)c(N(CC)CC)nc2c1
1370 | CC(C)Oc1ccc(-c2noc(CN3C(=O)COc4cc(C(C)(C)C)ccc43)n2)cc1
1020 | O=S(=O)(NCc1cccs1)c1ccc(Cl)c(-c2nnc(-c3ccccc3)o2)c1
642 | CCc1ccccc1NC(=O)N1CCN(C2=CC3=NC(CC)CN3C=N2)CC1 (configuration not stated)
1010 | CC1CCN(S(=O)(=O)c2ccc(-c3nnc(C(=O)NCc4ccc5c(c4)OCO5)o3)cc2)CC1
650 | Cn1cc(CCN2CCN(S(=O)(=O)c3cccc(Cl)c3)CC2)c2cccnc21
1220 | COc1cccc(C(=O)N2CCC(Oc3nc4c(C)ccc(C)c4s3)CC2)c1OC

— the METLIN SMRT retention time set (Domingo-Almenara et al. 2019)
